Laboratory results from paper PMC7391683, “Two glyoxylate reductase isoforms are functionally redundant but required under high photorespiration conditions in rice” (BMC Plant Biology, 2020).
One block for each molecule: values may come before it.

Key:
OsGR2 [1] = biological target: T1, OsGR2 (Oryza sativa, UniProt Q656T5); assay: NADH oxidation, Lineweaver-Burk; format: biochemical; conditions: glyoxylate fixed, pH 7.4, 30 °C
T1 construct: gene Os01g0574600; subunit about 37 kDa on SDS-PAGE
T1 sequence (Q656T5 45-341): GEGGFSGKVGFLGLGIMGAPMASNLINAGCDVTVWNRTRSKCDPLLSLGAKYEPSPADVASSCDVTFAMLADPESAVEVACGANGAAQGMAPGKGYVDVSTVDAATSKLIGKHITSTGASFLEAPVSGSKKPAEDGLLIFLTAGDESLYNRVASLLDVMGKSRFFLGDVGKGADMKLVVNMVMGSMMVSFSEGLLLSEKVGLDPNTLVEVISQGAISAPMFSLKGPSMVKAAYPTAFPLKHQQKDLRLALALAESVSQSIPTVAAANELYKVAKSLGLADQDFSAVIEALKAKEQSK
From the text: NADH oxidation, Lineweaver-Burk on OsGR2

OsGR2 [2] = biological target: T1, OsGR2; assay: NADPH oxidation, Lineweaver-Burk; format: biochemical; conditions: pH 7.4, 30 °C
From the text: NADPH oxidation, Lineweaver-Burk on OsGR2

OsGR1 = biological target: T2, OsGR1 (Oryza sativa, UniProt Q84VC8); assay: NAD(P)H oxidation; slopes of reciprocal plots against oxalate; format: biochemical; conditions: read-out: Ki(oxalate) (mM) / Glyoxylate as substrate NADPH as cofactor
T2 construct: full-length, 6xHis-tag (pCold vector), E. coli Rosetta (DE3), Ni-IDA purified; subunit about 30 kDa on SDS-PAGE
T2 sequence (Q84VC8 1-293): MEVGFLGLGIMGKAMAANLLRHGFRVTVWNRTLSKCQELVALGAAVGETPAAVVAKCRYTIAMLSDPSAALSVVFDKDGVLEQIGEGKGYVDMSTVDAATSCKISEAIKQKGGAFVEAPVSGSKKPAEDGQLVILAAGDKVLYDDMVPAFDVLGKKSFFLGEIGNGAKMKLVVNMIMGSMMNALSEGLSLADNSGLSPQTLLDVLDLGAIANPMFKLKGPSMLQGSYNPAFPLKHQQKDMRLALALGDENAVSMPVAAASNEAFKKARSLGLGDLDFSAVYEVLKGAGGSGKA
From the text: NAD(P)H oxidation; slopes of reciprocal plots against oxalate on OsGR1

[3] = substrate: NC(=O)C1=CN([C@@H]2O[C@H](COP(=O)(O)OP(=O)(O)OC[C@H]3O[C@@H](n4cnc5c(N)ncnc54)[C@H](O)[C@@H]3O)[C@@H](O)[C@H]2O)C=CC1; assay: NADH oxidation, Lineweaver-Burk; format: biochemical, Oryza sativa; conditions: glyoxylate fixed, pH 7.4, 30 °C, varied: cofactor
From the text: NADH oxidation, Lineweaver-Burk on OsGR1

[4] = substrate: NC(=O)C1=CN([C@@H]2O[C@H](COP(=O)(O)OP(=O)(O)OC[C@H]3O[C@@H](n4cnc5c(N)ncnc54)[C@H](OP(=O)(O)O)[C@@H]3O)[C@@H](O)[C@H]2O)C=CC1; assay: NADPH oxidation, Lineweaver-Burk; format: biochemical, Oryza sativa; conditions: glyoxylate fixed, pH 7.4, 30 °C, varied: cofactor
From the text: (§1) NADPH oxidation, Lineweaver-Burk on OsGR1

[5] = substrate: O=CC(=O)O; assay: NADPH oxidation, Lineweaver-Burk; format: biochemical, Oryza sativa; conditions: NADPH fixed, pH 7.4, 30 °C
From the text: as §1

Molecule: NC(=O)C1=CN([C@@H]2O[C@H](COP(=O)(O)OP(=O)(O)OC[C@H]3O[C@@H](n4cnc5c(N)ncnc54)[C@H](O)[C@@H]3O)[C@@H](O)[C@H]2O)C=CC1 [NADH]
- Km (OsGR2 [1]): 404 ± 66.5 µM

Molecule: NC(=O)C1=CN([C@@H]2O[C@H](COP(=O)(O)OP(=O)(O)OC[C@H]3O[C@@H](n4cnc5c(N)ncnc54)[C@H](OP(=O)(O)O)[C@@H]3O)[C@@H](O)[C@H]2O)C=CC1 [NADPH]
- Km (OsGR2 [2]; glyoxylate fixed): 53 ± 4.6 µM

B1: OsGR1 (Oryza sativa Japonica Group) (protein)
chain: T2 sequence (Q84VC8 1-293)
notes: full-length, 6xHis-tag (pCold vector), E. coli Rosetta (DE3), Ni-IDA purified; subunit about 30 kDa on SDS-PAGE
- Km [3]: 420.2 ± 50.5 µM
- Km [4]: 17.6 ± 3.1 µM
- Km [5]: 30.4 ± 3.5 µM

Now from value to molecule:

- Km (OsGR2 [2]; NADPH fixed): 72.1 ± 5.3 µM
Molecule: O=CC(=O)O [glyoxylate]

- Ki (OsGR1): 21.2 ± 4.3 mM
Molecule: O=C(O)C(=O)O [oxalate]
